Data as given in US8329926B2, “Antiviral compounds” (Gilead Sciences, Inc., priority 2004, dated 2012).
pEC50, pIC50: −log10 of the molar value. Structures can show the parent of a compound that is named as a salt. Where two headings read alike, the source gives them in different places.

Assays:
HIV-1 = experiment: Anti-HIV-1 activity (EC50); type: cell-based; conditions: for EC50: read-out: EC50 [uM] HIV-1
mtDNA = mtDNA IC50; type: cell-based
K65R = conditions: FIG. 1
6TAM = conditions: FIG. 1
M184V = conditions: FIG. 1

Nc1ncnc2c1ncn2[C@@H]1O[C@H](OCP(=O)(O)O)C=C1F [2′F-d4AP, (2′R, 5′R)-9-(3-fluoro-2,5-dihydro-5-phosphonomethoxy-2-furanyl)adenine di sodium salt]
EC50 (HIV-1): 1 to 100 µM | IC50 (mtDNA; FIG. 2, read-out: IC50 [uM] mtDNA): 100 to 1000 µM | CC50 (MT-2): < 1000 µM

Nc1nc(N)c2ncn([C@@H]3O[C@H](OCP(=O)(O)O)C=C3F)c2n1 [2′F-d4DAPP]
EC50 (HIV-1): 100 to 1000 µM

C[C@H](Cn1cnc2c(N)ncnc21)OCP(=O)(O)O [Tenofovir]
EC50 (HIV-1; FIG. 1): 1 to 100 µM | pIC50 (mtDNA; FIG. 1, read-out: mtDNA 1050): 3.00 to 4.00 | CC50 (MT-2): < 1000 µM | Resistance - fold EC50 K65R (K65R): +++ (+++=1-100) | Resistance - fold EC50 6TAM (6TAM): +++ (+++=1-100) | Resistance - fold EC50 M184V (M184V): ++++ (++++=0.01-1)

CCCOC(=O)[C@H](C)NP(=O)(CO[C@@H]1C=C(F)[C@H](n2cnc3c(N)ncnc32)O1)N[C@@H](C)C(=O)OCCC [drawing 144 (Ala) n-Propyl]
pEC50 (HIV-1; Human immunodeficiency virus 1, FIG. 5, prodrugs by R1 (aa) and R2 (ester), read-out: EC50): 6.00 to 7.00
